According to patent publication US20260374739A1, “SMALL MOLECULAR WEIGHT CHEMICAL COMPOUND TO ANTAGONIZE EPH-EPHRIN TETRAMERIZATION AND INHIBIT BIDIRECTIONAL SIGNALING” (THE BOARD OF REGENTS OF THE UNIVERSITY OF TEXAS SYSTEM, priority 2022, published 2026):

Target: T1, EphB4-Fc with EB2-His (Mus musculus, UniProt P54761)
T1 construct: soluble EphB ectodomains conjugated to Fc from R&D Systems; mouse EB2-His residues 18-232; purchased R&D Systems (EphB-Fc); Sino Biologicals (EphrinB-His)
T1 sequence (P54761 16-539 limits assumed): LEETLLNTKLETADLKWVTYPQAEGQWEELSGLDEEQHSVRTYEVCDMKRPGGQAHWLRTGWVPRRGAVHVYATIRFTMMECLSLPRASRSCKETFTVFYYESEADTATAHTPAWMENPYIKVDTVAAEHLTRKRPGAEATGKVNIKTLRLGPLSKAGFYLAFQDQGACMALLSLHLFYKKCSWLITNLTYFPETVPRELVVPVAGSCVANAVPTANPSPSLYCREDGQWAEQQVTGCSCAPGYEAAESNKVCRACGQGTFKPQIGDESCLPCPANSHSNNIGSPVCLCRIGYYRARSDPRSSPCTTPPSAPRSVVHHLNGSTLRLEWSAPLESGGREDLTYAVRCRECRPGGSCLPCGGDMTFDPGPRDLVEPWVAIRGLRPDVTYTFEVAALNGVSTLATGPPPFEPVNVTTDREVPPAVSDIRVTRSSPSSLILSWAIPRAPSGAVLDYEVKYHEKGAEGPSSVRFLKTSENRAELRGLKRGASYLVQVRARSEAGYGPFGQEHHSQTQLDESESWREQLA
Experiment: Alpha assay EphB4-EB2
Type: binding
Settings: for antagonism of EphB4-EB2 interaction: Alpha, ELISA, pulldown
Method: FIG. 5D depicts results from an alpha assay using EphB2-Fc or EphB4-Fc with EB2-His and increasing A20 concentrations to calculate IC50 determination (~10 μM, similar to that found in FIG. 5C).
Protein interaction assays were developed using soluble EphB ectodomains conjugated to Fc from R&D Systems (e.g., rat EphB1-Fc residues 18-538, which is 99.4% identical to human) and EphrinB ectodomains conjugated to His from Sino Biologicals (e.g., mouse EB2-His residues 18-232, which is 97.7% identical to human). Titrating concentrations of the EphB1-Fc ectodomain (or unconjugated Fc protein as negative control) was added with titrating amounts of the three different EphrinB ectodomains (EB1-His, EB2-His, or EB3-His) with 125 ng each of the Protein A donor, anti-6×-His acceptor beads, 2% DMSO, and 1× HiBlock buffer (all from PerkinElmer) in 384 well plates, and after 3 hr incubation at RT were read in an Envision Multilabel Reader 2102. […] No signal above background (<1,500) was detected for wells that contained an Fc control protein and the EB-His proteins or just the EphB1-Fc protein and no EB-His protein.
A20, E13, and other compounds from the top 32 hits were then characterized in pulldown assays. EphB1-Fc was immobilized onto Protein A agarose beads, then mixed with compounds and the soluble EB2-His ectodomain for 1 hr at RT, after which protein complexes were washed and then bound EB2 was detected by immunoblot using anti-His antibodies.

SMILES: COc1ccccc1N1CCN(Cc2cc(Br)c(O)c3ncccc23)CC1 [Compound 70, 7-bromo-5-((4-(2-methoxyphenyl)piperazin-1-yl)methyl)quinolin-8-ol]
- antagonism of EphB4-EB2 interaction: very little if any effect on the EphB4-EB2 interaction

SMILES: Oc1c(Br)cc(CN2CCOCC2)c2cccnc12 [Compound 5, 7-bromo-5-(morpholinomethyl)quinolin-8-ol]
- IC50 (EphB4-EB2): > 150 µM

SMILES: Oc1c(Cl)cc(CN2CCOCC2)c2cccnc12 [Compound 3, 7-chloro-5-(morpholinomethyl)quinolin-8-ol]
- antagonism of EphB4-EB2 interaction: very little if any effect on the EphB4-EB2 interaction
